Results published in US11752162B2, “Compounds and compositions for treating solid tumors by intratumoral administration” (Novartis AG, priority 2017, dated 2023).

What was measured:
[1] = Adsorption of compounds to aluminum hydroxide in histidine buffer (pH 6.8); type: physicochemical; conditions: histidine buffer pH 6.8, 0.1 mg/mL compound, 37° C. 5 hours
IP-10 = assay: Plasma IP-10 profiles in Wistar rats after s.c. injection; type: in vivo, rat; conditions: male Wistar rats
[2] = Binding efficiency of Compound 15 to aluminum-containing particles (Alhydrogel) in Tris buffer; type: physicochemical
Excerpt: The efficiency of binding of compounds of Formula (A) to aluminum-containing particles, as reflected in the percentage (%) bound to aluminum-containing particles, is a function of the (weight/weight) ratio of aluminum-containing particles to compound and to the final concentration (mg/mL) of compound in suspension with aluminum hydroxide. By way of example, the dependence of binding efficiency on the aluminum-containing particles to compound (w/w) ratio is shown in Table 8, where the final concentration of Compound 15 is fixed at 2 mg/mL and the amount of aluminum hydroxide is varied to obtain the desired ratio. The percentage of Compound 15 bound were obtained as described above in the “Materials and Method”, and the suspensions of Compound 15/Alhydrogel® were prepared in 20 mM Tris buffer (pH 7.4) as described above in “Compound 15/Alhydrogel® Suspensions”.
In addition, for (w/w) ratios of aluminum-containing particles to compound of 1.5:1 and below, the binding efficiency has an apparent pH dependence. The effect of pH on binding efficiency is seen in Table 10, where the binding efficiency of Compound 15 at either a ratio of aluminum hydroxide to Compound 15 (w/w) of 1.5:1 or 2:1 is given shown. The percentage of Compound bound was obtained as described above, although in Tris buffer at differing pH values. The suspensions of Compound 15/Alhydrogel® in Tris buffer at various were prepared as described above in “Compound 15/Alhydrogel® Suspensions”.

A20 tumors = assay: Mouse syngeneic lymphoma A20 bilateral tumor model, single agent dose response; type: in vivo; conditions: Compound 15 alone i.t., two weekly doses
Description: The anti-tumor efficacy of Compound 15 adsorbed to Alhydrogel® was determined using the mouse syngeneic lymphoma A20 bilateral tumor model in female BALB/c mice.
A20 cells were grown in sterile conditions in a 37° C. incubator with 5% CO2 for two weeks. Cells were grown in RPMI 1640 medium with 2 mM L-glutamine adjusted to contain 1.5 g/L sodium bicarbonate, 4.5 g/L glucose, 10 mM HEPES, and 1.0 mM sodium pyruvate and supplemented with 0.05 mM 2-mercaptoethanol, 10% fetal bovine serum. Cells were passaged every 2-3 days. For the day of implant cells were lifted (passage 12) and re-suspended in HBSS at a concentration of 5×10^6 cells/100 μL. Cells were Radil tested for mycoplasma and murine viruses. For each mouse, 5×10^6 cells were implanted by subcutaneous injection into the right and left flank using a 28.5 g needle (100 μl injection volume). Tumor sizes were assessed three times a week once tumors were palpable. Tumor sizes were determined by using caliper measurements, with tumor volumes calculated using the formula: (Length×Width×Width)/2.
The female Balb/c mice bearing the A20 tumors were randomized into 7 groups (n=10 mice per group) 8 days post tumor cell implantation with an average tumor volume range of 111.40±23.57 mm^3. […]
Tumor volumes were measured by digital caliper 3 times a week and body weights of all animals were recorded throughout the study. […]

human TLR7 = molecular target: T1, human TLR7 (Homo sapiens, UniProt Q9NYK1); assay: TLR7 reporter gene assay (NF-kB-driven luciferase) in HEK293 cells
T1 sequence (Q9NYK1 27-1049): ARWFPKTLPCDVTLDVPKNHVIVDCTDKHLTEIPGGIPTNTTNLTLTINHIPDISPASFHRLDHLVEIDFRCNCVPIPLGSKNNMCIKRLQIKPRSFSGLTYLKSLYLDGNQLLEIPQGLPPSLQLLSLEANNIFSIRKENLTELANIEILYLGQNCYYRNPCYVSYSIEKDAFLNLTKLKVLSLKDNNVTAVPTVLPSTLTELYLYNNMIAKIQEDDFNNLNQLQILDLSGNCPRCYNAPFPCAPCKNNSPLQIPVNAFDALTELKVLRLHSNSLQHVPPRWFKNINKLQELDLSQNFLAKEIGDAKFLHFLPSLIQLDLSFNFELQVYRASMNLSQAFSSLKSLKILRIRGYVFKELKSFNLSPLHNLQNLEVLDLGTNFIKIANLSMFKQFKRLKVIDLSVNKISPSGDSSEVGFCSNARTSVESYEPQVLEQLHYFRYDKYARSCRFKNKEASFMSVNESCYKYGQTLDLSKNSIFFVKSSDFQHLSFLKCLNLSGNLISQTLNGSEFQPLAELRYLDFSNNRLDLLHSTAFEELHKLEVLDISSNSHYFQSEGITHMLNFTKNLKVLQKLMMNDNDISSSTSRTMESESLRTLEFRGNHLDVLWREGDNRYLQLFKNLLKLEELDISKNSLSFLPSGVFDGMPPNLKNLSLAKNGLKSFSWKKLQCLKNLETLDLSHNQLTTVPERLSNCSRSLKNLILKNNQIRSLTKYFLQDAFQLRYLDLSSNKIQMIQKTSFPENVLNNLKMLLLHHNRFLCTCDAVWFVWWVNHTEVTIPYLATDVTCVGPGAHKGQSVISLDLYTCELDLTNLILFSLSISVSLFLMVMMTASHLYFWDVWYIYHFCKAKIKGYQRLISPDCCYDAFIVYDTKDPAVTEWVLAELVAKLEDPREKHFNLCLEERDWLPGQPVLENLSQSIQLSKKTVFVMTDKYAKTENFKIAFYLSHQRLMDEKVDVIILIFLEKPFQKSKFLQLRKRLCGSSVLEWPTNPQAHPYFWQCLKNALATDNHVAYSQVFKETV

[3] = female, C57/BL6, mouse, in vivo, iv, 2 mg/kg
[4] = Compound 15 2 mg/mL, aluminum 0.2 mg/mL, ratio 0.1:1, 20 mM Tris pH 7.4
[5] = Compound 15 2 mg/mL, aluminum 4 mg/mL, ratio 2:1, 20 mM Tris pH 7.4

% Bound [1]: 96.0% | Compound 15 % Bound [2, 4]: 12.5% | Compound 15 % Free [2, 4]: 87.5% | Compound 15 % Bound ([2]; Compound 15 2 mg/mL, aluminum 0.5 mg/mL, ratio 0.25:1, 20 mM Tris pH 7.4): 25.7% | Compound 15 % Free ([2]; Compound 15 2 mg/mL, aluminum 1 mg/mL, ratio 0.5:1, 20 mM Tris pH 7.4): 56.5% | Compound 15 % Bound [2, 5]: 99.7% | Compound 15 % Free [2, 5]: 0.3% | Compound 15 % Bound ([2]; aluminum hydroxide:Compound 15 ratio (w/w) 1.5:1, Tris buffer pH 8): 91.1% | Compound 15 % Bound ([2]; aluminum hydroxide:Compound 15 ratio (w/w) 2:1, Tris buffer pH 7.5): 99.7% | EC50 (human TLR7): 96 nM | plasma clearance as % of mouse liver blood flow [3]: ~20%
Compound: Cc1cc(OCCOCCC(F)(F)P(=O)(O)O)ccc1CCc1cnc2c(N)nc3cc(CCC(=O)O)ccc3c2c1 [Compound 15, 3-(5-amino-2-(4-(2-(3,3-difluoro-3-phosphonopropoxy)ethoxy)-2-methylphenethyl)benzo[f][1,7]naphthyridin-8-yl)propanoic acid]
peak plasma IP-10 levels compared with 600 μg Compound 15/aluminum hydroxide (IP-10; 600 μg s.c.): higher peak IP-10 levels with a fast rate of decline | time of maximum plasma IP-10 levels post s.c. injection (IP-10; 50 and 600 μg adsorbed, 600 μg free Compound 15): around 3 h | tumor growth, both tumor sites (A20 tumors): no significant difference in both tumor sites
